Experimental findings from US12612384B2, “Heterocyclic CYP4A inhibitor compounds and compositions thereof” (MBD CO., LTD., priority 2021, dated 2026) are described below.

In the first assay the target is T1, CYP4A (Homo sapiens, UniProt Q02928).
T1 construct: purchased; host or cells: bacterial membranes ('bactosome')
T1 sequence (Q02928 5-519): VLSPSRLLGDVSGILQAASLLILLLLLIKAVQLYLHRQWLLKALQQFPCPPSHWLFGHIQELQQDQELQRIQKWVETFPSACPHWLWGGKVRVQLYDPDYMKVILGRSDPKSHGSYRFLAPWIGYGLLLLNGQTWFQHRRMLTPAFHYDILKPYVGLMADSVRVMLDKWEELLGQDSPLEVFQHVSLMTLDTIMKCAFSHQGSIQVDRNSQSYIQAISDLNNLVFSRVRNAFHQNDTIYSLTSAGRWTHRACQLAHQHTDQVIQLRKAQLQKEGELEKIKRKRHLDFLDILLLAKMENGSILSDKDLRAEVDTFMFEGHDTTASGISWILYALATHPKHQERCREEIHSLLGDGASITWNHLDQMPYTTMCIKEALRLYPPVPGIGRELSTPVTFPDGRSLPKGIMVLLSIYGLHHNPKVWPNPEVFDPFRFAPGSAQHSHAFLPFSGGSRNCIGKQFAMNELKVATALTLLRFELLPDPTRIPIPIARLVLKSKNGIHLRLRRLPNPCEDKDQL
The experiment in a line: CYP4A enzyme assay (luminescence, Luciferin-ME). Particulars: Compound concentration 5 μM; 50%-70%; read-out: % Inhibition 50%-70%. Type of assay: biochemical. The protocol:
The CYP4A inhibitory activity of the above compounds of the examples was measured. The reagents used in the experiment were commercially available, and were prepared and used when necessary. The device used for measuring activity was SpectraMax of MOLECULAR DEVICES.
CYP4A bactosome and the compounds to be evaluated (5 μM) were each diluted in assay buffer (100 mM KPO4, 0.1% BSA, 1 mM DTT) and mixed in a 384 well plate (white opaque polystyrene nontreated flat-bottom well), and reaction was carried out at room temperature for 15 minutes. To induce CYP4A reaction, 5 mM Luciferin-ME, NADPH Regeneration system (10× sol. A, 20× sol. B in assay buffer, Cat. Number: V865B, Promega) were sequentially added and mixed, and the reaction was carried out at room temperature for 30 minutes. Then, Luciferin Detection reagent was added thereto and reacted at room temperature for 15 minutes to stop the CYP4A reaction and induce a luminescence reaction. Finally, after measuring the luminescence value using a microplate reader, the inhibition of CYP4A activity by the compounds was evaluated by comparing the luminescence value from each well.
The inhibition is the share of the control response that was lost under treatment. `O=C(C1CCCN(C(=O)C2CCCCC2)C1)N1CCN(c2ccnc3cc(F)ccc23)CC1` (centres unmarked) [Example 108, (1-(cyclohexylcarbonyl)piperidin-3-yl)(4-(7-fluoroquinolin-4-yl)piperazin-1-yl)methanone]: the inhibition at 5 µM was in the range of 50 to 70%.

For `O=C(C1CCCN(S(=O)(=O)C2CC2)C1)N1CCN(c2ccnc3cc(F)ccc23)CC1` (centres unmarked) [Example 119, (1-(cyclopropylsulfonyl)piperidin-3-yl)(4-(7-fluoroquinolin-4-yl)piperazin-1-yl)methanone], the inhibition at 5 µM lay within 50 to 70%.

In the case of `COc1ccc(C(=O)N2CCCC(C(=O)N3CCN(c4ccnc5cc(Cl)ccc45)CC3)C2)cc1` (centres unmarked) [Example 88, (4-(7-chloroquinolin-4-yl)piperazin-1-yl)(1-(4-methoxyphenylcarbonyl)piperidin-3-yl)methanone], the inhibition at 5 µM lay within 50 to 70%.

As for `Cc1cc(N2CCN(C(=O)C3CCCN(C(=O)c4ccc(F)cc4)C3)CC2)c2ccccc2n1` (centres unmarked) [Example 101, (1-(4-fluorobenzoyl)piperidin-3-yl)(4-(2-methylquinolin-4-yl)piperazin-1-yl)methanone], the inhibition at 5 µM was in the range of 50 to 70%.

For the compound `Cc1cc(N2CCN(C(=O)C3CCCN(C(=O)c4ccncc4)C3)CC2)c2ccccc2n1` (centres unmarked) [Example 104, (1-isonicotinoylpiperidin-3-yl)(4-(2-methylquinolin-4-yl)piperazin-1-yl)methanone], the inhibition at 5 µM was 50 to 70%.

As for `Cc1ccc(S(=O)(=O)N2CCCC(C(=O)N3CCN(c4ncnc5ccccc45)CC3)C2)cc1` (centres unmarked) [Example 75, (4-(quinazolin-4-yl)piperazin-1-yl)(1-tosylpiperidin-3-yl)methanone], the inhibition at 5 µM was in the range of 50 to 70%.

The assay is the same for the next values; noted with them: Compound concentration 5 μM; 70%-90%; read-out: % Inhibition 70%-90%.
For `O=C(c1ccc(F)cc1)N1CCCC(C(=O)N2CCN(c3ccnc4ccccc34)CC2)C1` (centres unmarked) [Example 112, (1-(4-fluorophenylcarbonyl)piperidin-3-yl)(4-(quinolin-4-yl)piperazin-1-yl)methanone], the inhibition at 5 µM is 70 to 90%.

Consider `NCCn1cnc(S(=O)(=O)N2CC[C@H](C(=O)N3CCN(c4ccnc5cc(F)ccc45)CC3)C2)n1` [Example 144, (S)-(1-((1-(2-aminoethyl)-1H-1,2,4-triazol-3-yl)sulfonyl)pyrrolidin-3-yl)(4-(7-fluoroquinolin-4-yl)piperazin-1-yl)methanone], for which the inhibition at 5 µM fell in the range of 70 to 90%.

Regarding `COc1ccc(C(=O)N2CCCC(C(=O)N3CCN(c4ccnc5ccccc45)CC3)C2)cc1` (centres unmarked) [Example 116, (1-(4-methoxyphenylcarbonyl)piperidin-3-yl)(4-(quinolin-4-yl)piperazin-1-yl)methanone], the inhibition at 5 µM was 70 to 90%.

For the compound `O=C(C1CCCN(S(=O)(=O)C2CCCCC2)C1)N1CCN(c2ccnc3ccccc23)CC1` (centres unmarked) [Example 121, (1-(cyclohexylsulfonyl)piperidin-3-yl)(4-(quinolin-4-yl)piperazin-1-yl)methanone], the inhibition at 5 µM fell in the range of 70 to 90%.

For the compound `O=C([C@H]1CCN(S(=O)(=O)c2ncnn2CCO)C1)N1CCN(c2ccnc3cc(F)ccc23)CC1` [Example 145, (S)-(4-(7-fluoroquinolin-4-yl)piperazin-1-yl)(1-((1-(2-hydroxyethyl)-1H-1,2,4-triazol-5-yl)sulfonyl)pyrrolidin-3-yl)methanone], the inhibition at 5 µM lay in the range of 70 to 90%.

Take `O=C(C1CCN(S(=O)(=O)c2ccc(Br)cc2)C1)N1CCN(c2ccnc3ccccc23)CC1` (centres unmarked) [Example 31, (1-((4-bromophenyl)sulfonyl)pyrrolidin-3-yl)(4-(quinolin-4-yl)piperazin-1-yl)methanone]: the inhibition at 5 µM lay within 70 to 90%.

`CN(C)c1ccc(S(=O)(=O)N2CCCC(C(=O)N3CCN(c4ncnc5ccccc45)CC3)C2)cc1` (centres unmarked) [Example 77]: the inhibition at 5 µM is 70 to 90%.

The assay is the same for the next values; noted with them: Compound concentration 5 μM; Greater than 90%; read-out: % Inhibition Greater than 90%.
Take `O=C(C1CCCN(S(=O)(=O)c2ccc(Cl)nc2)C1)N1CCN(c2ccnc3cc(F)ccc23)CC1` (centres unmarked) [Example 59, (1-((6-chloropyridin-3-yl)sulfonyl)piperidin-3-yl)(4-(7-fluoroquinolin-4-yl)piperazin-1-yl)methanone]: the inhibition at 5 µM is above 90%.

Regarding `O=C([C@H]1CCN(S(=O)(=O)c2ncc[nH]2)C1)N1CCN(c2ccnc3cc(F)ccc23)CC1` [Example 146, (S)-(1-((1H-imidazol-2-yl)sulfonyl)pyrrolidin-3-yl)(4-(7-fluoroquinolin-4-yl)piperazin-1-yl)methanone], the inhibition at 5 µM was above 90%.

Take `CN(C)c1ccc(S(=O)(=O)N2CCC(C(=O)N3CCN(c4ccnc5cc(F)ccc45)CC3)C2)cc1` (centres unmarked) [Example 3, (1-((4-(dimethylamino)phenyl)sulfonyl)pyrrolidin-3-yl)(4-(7-fluoroquinolin-4-yl)piperazin-1-yl)methanone]: the inhibition at 5 µM was above 90%.

Take `Cc1n[nH]c(C)c1S(=O)(=O)N1CCC(C(=O)N2CCN(c3ccnc4ccccc34)CC2)C1` (centres unmarked) [Example 45, (1-((3,5-dimethyl-1H-pyrazol-4-yl)sulfonyl)pyrrolidin-3-yl)(4-(quinolin-4-yl)piperazin-1-yl)methanone]: the inhibition at 5 µM was above 90%.

In the case of `CC(=O)Nc1ccc(S(=O)(=O)N2CCC(C(=O)N3CCN(c4ccnc5ccccc45)CC3)C2)cc1` (centres unmarked) [Example 21, N-(4-((3-(4-(quinolin-4-yl)piperazine-1-carbonyl)pyrrolidin-1-yl)sulfonyl)phenyl)acetamide], the inhibition at 5 µM is above 90%.

As for `O=C(c1nn[nH]n1)N1CC[C@H](C(=O)N2CCN(c3ccnc4cc(F)ccc34)CC2)C1` [Example 162, (S)-(1-(2H-tetrazole-5-carbonyl)pyrrolidin-3-yl)(4-(7-fluoroquinolin-4-yl)piperazin-1-yl)methanone], the inhibition at 5 µM is above 90%.

Take `O=C(C1CCN(S(=O)(=O)c2ccc(-c3cccnc3)cc2)CC1)N1CCN(c2ccnc3cc(F)ccc23)CC1` [Example 58, (4-(7-fluoroquinolin-4-yl)piperazin-1-yl)(1-((4-(pyridin-3-yl)phenyl)sulfonyl)piperidin-4-yl)methanone]: the inhibition at 5 µM was above 90%.

Consider `Cn1ccnc1S(=O)(=O)N1CC[C@@H](C(=O)N2CCN(c3ccnc4cc(F)ccc34)CC2)C1` [Example 6, (R)-(4-(7-fluoroquinolin-4-yl)piperazin-1-yl)(1-((1-methyl-1H-imidazol-2-yl)sulfonyl)pyrrolidin-3-yl)methanone], for which the inhibition at 5 µM was above 90%.

Regarding `O=C(C1CCN(S(=O)(=O)c2ccc(O)cc2)C1)N1CCN(c2ccnc3cc(F)ccc23)CC1` (centres unmarked) [Example 4, (4-(7-fluoroquinolin-4-yl)piperazin-1-yl)(1-((4-hydroxyphenyl)sulfonyl)pyrrolidin-3-yl)methanone], the inhibition at 5 µM is above 90%.

Turning to `O=C(C1CN(S(=O)(=O)c2ccc([N+](=O)[O-])cc2)C1)N1CCN(c2ccnc3cc(F)ccc23)CC1` [Example 67, (4-(7-fluoroquinolin-4-yl)piperazin-1-yl)(1-((4-nitrophenyl)sulfonyl)azetidin-3-yl)methanone], the inhibition at 5 µM is above 90%.

With `O=C([C@H]1CCN(S(=O)(=O)c2cccnc2)C1)N1CCN(c2ccnc3cc(F)ccc23)CC1` [Example 156, (S)-(4-(7-fluoroquinolin-4-yl)piperazin-1-yl)(1-(pyridin-3-ylsulfonyl)pyrrolidin-3-yl)methanone], the inhibition at 5 µM is above 90%.

Take `O=C([C@H]1CCN(S(=O)(=O)c2ncc[nH]2)C1)N1CCN(c2ccnc3cc(F)c(F)cc23)CC1` [Example 169, (S)-(1-((1H-imidazol-2-yl)sulfonyl)pyrrolidin-3-yl)(4-(6,7-difluoroquinolin-4-yl)piperazin-1-yl)methanone]: the inhibition at 5 µM was above 90%.

Consider `Cn1ccnc1S(=O)(=O)N1CCC(C(=O)N2CCN(c3ccnc4cc(F)ccc34)CC2)C1` (centres unmarked) [Example 5, (4-(7-fluoroquinolin-4-yl)piperazin-1-yl)(1-((1-methyl-1H-imidazol-2-yl)sulfonyl)pyrrolidin-3-yl)methanone], for which the inhibition at 5 µM was above 90%.

For `CC(=O)Nc1cccc(S(=O)(=O)N2CCC(C(=O)N3CCN(c4ccnc5cc(F)ccc45)CC3)CC2)c1` [Example 55, N-(3-((4-(4-(7-fluoroquinolin-4-yl)piperazine-1-carbonyl)piperidin-1-yl)sulfonyl)phenyl)acetamide], the inhibition at 5 µM was above 90%.

The assay is the same for the next values; noted with them: Compound concentration 5 μM; Less than 50%; read-out: % Inhibition Less than 50%.
As to `O=C(C1CCCN(C(=O)C2CCCCC2)C1)N1CCN(c2ccnc3ccccc23)CC1` (centres unmarked) [Example 114, (1-(cyclohexylcarbonyl)piperidin-3-yl)(4-(quinolin-4-yl)piperazin-1-yl)methanone], the inhibition at 5 µM is below 50%.

Take `Cc1ccc(S(=O)(=O)N2CCCC(C(=O)N3CCN(c4nc(C)nc5ccccc45)CC3)C2)cc1` (centres unmarked) [Example 80, (4-(2-methylquinazolin-4-yl)piperazin-1-yl)(1-tosylpiperidin-3-yl)methanone]: the inhibition at 5 µM is below 50%.
